Measurements reported in patent US9012414B2, “Cosmetic composition” (Guerlain, priority 2010, dated 2015).

System: involucrin
Assay: Involucrin expression in normal human keratinocytes (immunolabeling)
Assay type: cell-based
Conditions: NHKs, 12 μg/ml, treatment 5 days
Protocol: The NHKs are cultured at passage 3 in complete KSFM medium in a T75 flask. At the pre-confluence stage, the NHKs are trypsinized and seeded in a proportion of 20 000 cells per well in 8-well Lab-Tek II culture systems (Nalge Nunc International), 4 wells per treatment condition. At 80% confluence, the cells are treated for 5 days with the various compositions of active agents (VT1, VT2, VT3, each at 12 μg/ml) until the post-confluence stage is reached. Vitactyl® clair (extract of Malva sylvestris, Silab) at 3% is used as a positive control.
The cells are rinsed with PBS (PBS Tablets, Invitrogen GIBCO) and then fixed with formalin (Formalin Solution, 10%, Neutral Buffered, Sigma) for 10 minutes.
After rinsing with PBS, the culture chambers are filled with a 0.1% Triton solution (Triton X-100, Sigma) for 10 minutes in order to permeabilize the membranes, and then rinsed twice with PBS. The cells are then covered with a solution of PBS/1% BSA (BSA, Sigma) for 30 minutes at ambient temperature. The PBS/BSA solution is removed from the slides by inclining them on absorbent paper. […]
For each condition, four photos are taken in green fluorescence (expression of the markers) with the ×20 objective. […]
The photos are analyzed using the Leica QWin image analysis software. A program is created in order to quantify the expression of these differentiation markers.

Compound: O=C(CC(O)(Cc1ccc(O)cc1)C(=O)OCc1ccc(O[C@@H]2O[C@H](CO)[C@@H](O)[C@H](O)[C@H]2O)cc1)OCc1ccc(O[C@@H]2O[C@H](CO)[C@@H](O)[C@H](O)[C@H]2O)cc1 (stereo partly drawn) [VT2, 1,4-bis(4-β-D-glucopyranosyloxybenzyl)-(2R)-2-(p-hydroxybenzyl) malate]
- Involucrin expression compared with positive control Vitactyl clair at 3%: greater than that of the positive control
